# Measured values published in ChEMBL document CHEMBL1201861, “Genomics of Drug Sensitity in Cancer screening data, Wellcome Trust Sanger Institute”.
# Key:
# Assay in all cases: cells
# Details in all cases: Homo sapiens
# CPC-N = assay type: functional, cell-based;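 further: growth inhibition of CPC-N cells, with a cell viability assay as the readout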
# Description: SANGER: Inhibition of human CPC-N cell growth in a cell viability assay.
# Ca-Ski = assay type: functional, cell-based;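 further: cell viability assay measuring inhibition of Ca-Ski cell growth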
# Description: SANGER: Inhibition of human Ca-Ski cell growth in a cell viability assay.
# Ca9-22 = assay type: functional, cell-based;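 further: growth inhibition of Ca9-22 cells, read out with a cell viability assay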
# Description: SANGER: Inhibition of human Ca9-22 cell growth in a cell viability assay.
# DMS-153 = assay type: functional, cell-based
# Description: SANGER: Inhibition of human DMS-153 cell growth in a cell viability assay.
# EFO-21 = assay type: functional, cell-based;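 further: growth inhibition of EFO-21 cells measured with a viability assay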
# Description: SANGER: Inhibition of human EFO-21 cell growth in a cell viability assay.
# GAMG = assay type: functional, cell-based;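 further: cell growth inhibition measured by a viability assay in the GAMG human cell line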
# Description: SANGER: Inhibition of human GAMG cell growth in a cell viability assay.
# GCT = assay type: functional, cell-based;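 further: GCT cell line proliferation inhibition, read out with a cell viability assay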
# Description: SANGER: Inhibition of human GCT cell growth in a cell viability assay.
# GMS-10 = assay type: functional, cell-based;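 further: growth inhibition of GMS-10 cells, read out as cell viability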
# Description: SANGER: Inhibition of human GMS-10 cell growth in a cell viability assay.
# HCC1806 = assay type: functional, cell-based;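 further: growth inhibition of the cancer cell line, determined with a cell viability assay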
# Description: SANGER: Inhibition of human HCC1806 cell growth in a cell viability assay.
# HCC1954 = assay type: functional, cell-based;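 further: growth inhibition of human HCC1954 cells, read out with a cell viability assay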
# Description: SANGER: Inhibition of human HCC1954 cell growth in a cell viability assay.
# HGC-27 = assay type: functional, cell-based;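 further: growth inhibition of human HGC-27 cells, read out in a cell viability assay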
# Description: SANGER: Inhibition of human HGC-27 cell growth in a cell viability assay.
# HT-29 = assay type: functional, cell-based;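 further: growth inhibition of human HT-29 cells, read out by a cell viability assay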
# Description: SANGER: Inhibition of human HT-29 cell growth in a cell viability assay.
# HTC-C3 = assay type: functional, cell-based;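 further: inhibition of cell growth, read out with a cell viability assay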
# Description: SANGER: Inhibition of human HTC-C3 cell growth in a cell viability assay.
# Huh-7 = assay type: functional, cell-based;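 further: HuH-7 cell growth inhibition, read out with a cell viability assay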
# Description: SANGER: Inhibition of human HuH-7 cell growth in a cell viability assay.
# HuO-3N1 = assay type: functional, cell-based;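 further: cell viability readout used to measure how strongly compounds suppress proliferation of human HuO-3N1 cells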
# Description: SANGER: Inhibition of human HuO-3N1 cell growth in a cell viability assay.
# HuP-T3 = assay type: functional, cell-based;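 further: HuP-T3 cell growth inhibition, read out with a cell viability assay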
# Description: SANGER: Inhibition of human HuP-T3 cell growth in a cell viability assay.
# J82 = assay type: functional, cell-based;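 further: growth inhibition of J82 cells, read out with a cell viability assay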
# Description: SANGER: Inhibition of human J82 cell growth in a cell viability assay.
# JEG-3 = assay type: functional, cell-based;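 further: growth inhibition of human JEG-3 cells, read out with a cell viability assay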
# Description: SANGER: Inhibition of human JEG-3 cell growth in a cell viability assay.
# K052 = assay type: functional, cell-based;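 further: Read-out from a cell viability assay, IC50 reflecting suppression of K052 cell growth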
# Description: SANGER: Inhibition of human K052 cell growth in a cell viability assay.
# KYSE-410 = assay type: functional, cell-based;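 further: growth inhibition of KYSE-410 cells, measured through a cell viability readout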
# Description: SANGER: Inhibition of human KYSE-410 cell growth in a cell viability assay.
# KYSE-450 = assay type: functional, cell-based;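 further: cell growth inhibition measured by a viability assay in human KYSE-450 cells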
# Description: SANGER: Inhibition of human KYSE-450 cell growth in a cell viability assay.
# KYSE-510 = assay type: functional, cell-based;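 further: cell viability readout used to measure how strongly growth of the cell line is suppressed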
# Description: SANGER: Inhibition of human KYSE-510 cell growth in a cell viability assay.
# LK-2 = assay type: functional, cell-based;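 further: growth inhibition of LK-2 cells, read out with a viability assay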
# Description: SANGER: Inhibition of human LK-2 cell growth in a cell viability assay.
# LU-165 = assay type: functional, cell-based
# Description: SANGER: Inhibition of human LU-165 cell growth in a cell viability assay.
# MKN-1 = assay type: functional, cell-based;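 further: growth inhibition of human MKN1 cells, read out by a cell viability measurement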
# Description: SANGER: Inhibition of human MKN1 cell growth in a cell viability assay.
# NCI-H1792 = assay type: functional, cell-based;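 further: growth inhibition of human NCI-H1792 cells, read out as cell viability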
# Description: SANGER: Inhibition of human NCI-H1792 cell growth in a cell viability assay.
# NCI-H1963 = assay type: functional, cell-based;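 further: cell growth inhibition of the human line, determined with a cell viability assay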
# Description: SANGER: Inhibition of human NCI-H1963 cell growth in a cell viability assay.
# NCI-H2141 = assay type: functional, cell-based;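 further: growth inhibition of human NCI-H2141 cells, read out with a cell viability assay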
# Description: SANGER: Inhibition of human NCI-H2141 cell growth in a cell viability assay.
# NCI-H2171 = assay type: functional, cell-based;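 further: growth inhibition of human NCI-H2171 cells, read out by a cell viability assay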
# Description: SANGER: Inhibition of human NCI-H2171 cell growth in a cell viability assay.
# NCI-H2405 = assay type: functional, cell-based;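 further: growth inhibition of the human cell line, read out with a cell viability assay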
# Description: SANGER: Inhibition of human NCI-H2405 cell growth in a cell viability assay.
# NCI-H292 = assay type: functional, cell-based;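 further: growth inhibition of NCI-H292 cells, read out with a cell viability assay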
# Description: SANGER: Inhibition of human NCI-H292 cell growth in a cell viability assay.
# NCI-H345 = assay type: functional, cell-based;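 further: growth inhibition of NCI-H345 cells measured with a cell viability assay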
# Description: SANGER: Inhibition of human NCI-H345 cell growth in a cell viability assay.
# NCI-H727 = assay type: functional, cell-based;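 further: growth inhibition of human NCI-H727 cells, read out with a cell viability assay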
# Description: SANGER: Inhibition of human NCI-H727 cell growth in a cell viability assay.
# NCI-N87 = assay type: functional, cell-based;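 further: growth inhibition of human NCI-N87 cells, read out with a cell viability assay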
# Description: SANGER: Inhibition of human NCI-N87 cell growth in a cell viability assay.
# OE19 = assay type: functional, cell-based;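 further: growth inhibition of OE19 cells, measured through a cell viability read-out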
# Description: SANGER: Inhibition of human OE19 cell growth in a cell viability assay.
# P31-FUJ = assay type: functional, cell-based;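 further: growth inhibition of P31-FUJ cells, read out with a viability assay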
# Description: SANGER: Inhibition of human P31-FUJ cell growth in a cell viability assay.
# PA-1 = assay type: functional, cell-based;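 further: IC50 for suppression of PA-1 cell proliferation, determined with a cell viability read-out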
# Description: SANGER: Inhibition of human PA-1 cell growth in a cell viability assay.
# RCM-1 = assay type: functional, cell-based;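 further: growth inhibition of the RCM-1 line, determined with a cell viability readout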
# Description: SANGER: Inhibition of human RCM-1 cell growth in a cell viability assay.
# RD = assay type: functional, cell-based
# Description: SANGER: Inhibition of human RD cell growth in a cell viability assay.
# RPMI-7951 = assay type: functional, cell-based
# Description: SANGER: Inhibition of human RPMI-7951 cell growth in a cell viability assay.
# SAS = assay type: functional, cell-based;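 further: growth inhibition of SAS cells, read out with a cell viability assay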
# Description: SANGER: Inhibition of human SAS cell growth in a cell viability assay.
# SCC-25 = assay type: functional, cell-based;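 further: growth inhibition of SCC-25 cells, measured with a cell viability assay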
# Description: SANGER: Inhibition of human SCC-25 cell growth in a cell viability assay.
# SIG-M5 = assay type: functional, cell-based;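 further: cell viability assay read-out, measuring how strongly growth of cultured human SIG-M5 cells is inhibited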
# Description: SANGER: Inhibition of human SIG-M5 cell growth in a cell viability assay.
# SK-HEP1 = assay type: functional, cell-based, SK-HEP-1;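 further: cell viability readout used to quantify reduction in proliferation of human SK-HEP-1 cells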
# Description: SANGER: Inhibition of human SK-HEP-1 cell growth in a cell viability assay.
# SK-MEL3 = assay type: functional, cell-based, SK-MEL-3;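 further: growth inhibition of human SK-MEL-3 cells, read out with a cell viability assay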
# Description: SANGER: Inhibition of human SK-MEL-3 cell growth in a cell viability assay.
# SNU-449 = assay type: functional, cell-based
# Description: SANGER: Inhibition of human SNU-449 cell growth in a cell viability assay.
# SNU-C1 = assay type: functional, cell-based;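 further: growth inhibition of SNU-C1 human cells, read out by a cell viability assay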
# Description: SANGER: Inhibition of human SNU-C1 cell growth in a cell viability assay.
# SW1417 = assay type: functional, cell-based;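 further: growth inhibition of human SW1417 cells, read out with a cell viability assay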
# Description: SANGER: Inhibition of human SW1417 cell growth in a cell viability assay.
# SW1710 = assay type: functional, cell-based;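 further: growth inhibition of SW1710 cells, determined with a cell viability assay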
# Description: SANGER: Inhibition of human SW1710 cell growth in a cell viability assay.
# ABC-1 = assay type: functional, cell-based;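 further: growth inhibition of human ABC-1 cells, read out by a cell viability assay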
# Description: SANGER: Inhibition of human ABC-1 cell growth in a cell viability assay.
# ARH-77 = assay type: functional, cell-based;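 further: growth inhibition of ARH-77 cells, read out by a cell viability assay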
# Description: SANGER: Inhibition of human ARH-77 cell growth in a cell viability assay.
# BPH-1 = assay type: functional, cell-based
# Description: SANGER: Inhibition of human BPH-1 cell growth in a cell viability assay.
# C-33-A = assay type: functional, cell-based
# Description: SANGER: Inhibition of human C-33-A cell growth in a cell viability assay.
# CA46 = assay type: functional, cell-based
# Description: SANGER: Inhibition of human CA46 cell growth in a cell viability assay.
# CAL-120 = assay type: functional, cell-based
# Description: SANGER: Inhibition of human CAL-120 cell growth in a cell viability assay.
# CAL-39 = assay type: functional, cell-based
# Description: SANGER: Inhibition of human CAL-39 cell growth in a cell viability assay.
# CAL-72 = assay type: functional, cell-based
# Description: SANGER: Inhibition of human CAL-72 cell growth in a cell viability assay.
# TGW = assay type: functional, cell-based
# Description: SANGER: Inhibition of human TGW cell growth in a cell viability assay.
# THP-1 = assay type: functional, cell-based
# Description: SANGER: Inhibition of human THP-1 cell growth in a cell viability assay.
# U2OS = assay type: functional, cell-based, U-2-OS
# Description: SANGER: Inhibition of human U-2-OS cell growth in a cell viability assay.
# U-698-M = assay type: functional, cell-based
# Description: SANGER: Inhibition of human U-698-M cell growth in a cell viability assay.
# U-251 = assay type: functional, cell-based
# Description: SANGER: Inhibition of human U251 cell growth in a cell viability assay.
# UMUC3 = assay type: functional, cell-based
# Description: SANGER: Inhibition of human UM-UC-3 cell growth in a cell viability assay.
# YKG-1 = assay type: functional, cell-based
# Description: SANGER: Inhibition of human YKG-1 cell growth in a cell viability assay.
# COLO-678 = assay type: functional, cell-based
# Description: SANGER: Inhibition of human COLO-678 cell growth in a cell viability assay.
smiles,measurement,setting,value
CC(C)=CC[C@@H](O)C1=CC(=O)c2c(O)ccc(O)c2C1=O [SHIKONIN],IC50,CPC-N,> 16000 nM
same,IC50,Ca-Ski,650 nM
same,IC50,Ca9-22,581 nM
same,IC50,DMS-153,> 16000 nM
same,IC50,EFO-21,1340 nM
same,IC50,GAMG,1710 nM
same,IC50,GCT,1150 nM
same,IC50,GMS-10,11.5 µM
same,IC50,HCC1806,1270 nM
same,IC50,HCC1954,902 nM
same,IC50,HGC-27,228 nM
same,IC50,HT-29,645 nM
same,IC50,HTC-C3,542 nM
same,IC50,Huh-7,1960 nM
same,IC50,HuO-3N1,4430 nM
same,IC50,HuP-T3,834 nM
same,IC50,J82,143 nM
same,IC50,JEG-3,3170 nM
same,IC50,K052,1100 nM
same,IC50,KYSE-410,752 nM
same,IC50,KYSE-450,138 nM
same,IC50,KYSE-510,253 nM
same,IC50,LK-2,8.57 µM
same,IC50,LU-165,634 nM
same,IC50,MKN-1,236 nM
same,IC50,NCI-H1792,> 16000 nM
same,IC50,NCI-H1963,100 nM
same,IC50,NCI-H2141,1710 nM
same,IC50,NCI-H2171,909 nM
same,IC50,NCI-H2405,675 nM
same,IC50,NCI-H292,853 nM
same,IC50,NCI-H345,990 nM
same,IC50,NCI-H727,638 nM
same,IC50,NCI-N87,2940 nM
same,IC50,OE19,807 nM
same,IC50,P31-FUJ,2070 nM
same,IC50,PA-1,201 nM
same,IC50,RCM-1,2000 nM
same,IC50,RD,449 nM
same,IC50,RPMI-7951,156 nM
same,IC50,SAS,854 nM
same,IC50,SCC-25,383 nM
same,IC50,SIG-M5,170 nM
same,IC50,SK-HEP1,548 nM
same,IC50,SK-MEL3,2640 nM
same,IC50,SNU-449,813 nM
same,IC50,SNU-C1,> 16 µM
same,IC50,SW1417,826 nM
same,IC50,SW1710,< 62.5 nM
same,IC50,ABC-1,707 nM
same,IC50,ARH-77,873 nM
same,IC50,BPH-1,1260 nM
same,IC50,C-33-A,913 nM
same,IC50,CA46,192 nM
same,IC50,CAL-120,1360 nM
same,IC50,CAL-39,483 nM
same,IC50,CAL-72,1010 nM
same,IC50,TGW,522 nM
same,IC50,THP-1,891 nM
same,IC50,U2OS,> 16000 nM
same,IC50,U-698-M,301 nM
same,IC50,U-251,1430 nM
same,IC50,UMUC3,967 nM
same,IC50,YKG-1,229 nM
same,IC50,COLO-678,1630 nM
C/C=C(/C)C(=O)O[C@H]1C(C)=C2[C@H]([C@@H]1OC(=O)CCCCCCC)[C@@](C)(OC(C)=O)C[C@H](OC(=O)CCC)[C@@]1(O)[C@H]2OC(=O)[C@@]1(C)O [THAPSIGARGIN],IC50,CPC-N,10 nM
same,IC50,Ca-Ski,32.2 nM
same,IC50,Ca9-22,22.8 nM
same,IC50,DMS-153,19.9 nM
same,IC50,EFO-21,16.4 nM
same,IC50,GAMG,8.86 nM
same,IC50,GCT,5.3 nM
same,IC50,GMS-10,> 0.512 µM
same,IC50,HCC1806,2.4 nM
same,IC50,HCC1954,24.9 nM
same,IC50,HGC-27,< 2 nM
same,IC50,HT-29,5.4 nM
same,IC50,HTC-C3,21.7 nM
same,IC50,Huh-7,< 2 nM
same,IC50,HuO-3N1,43.2 nM
same,IC50,HuP-T3,18.1 nM
same,IC50,J82,7.91 nM
same,IC50,JEG-3,9.78 nM
same,IC50,K052,495 nM
same,IC50,KYSE-410,< 2 nM
same,IC50,KYSE-450,0.777 nM
same,IC50,KYSE-510,< 2 nM
same,IC50,LK-2,0.00146 µM
same,IC50,LU-165,> 512 nM
same,IC50,MKN-1,47.4 nM
same,IC50,NCI-H1792,0.526 nM
same,IC50,NCI-H1963,66.2 nM
same,IC50,NCI-H2141,85 nM
same,IC50,NCI-H2171,12.5 nM
same,IC50,NCI-H2405,1.14 nM
same,IC50,NCI-H292,14.9 nM
same,IC50,NCI-H345,37 nM
same,IC50,NCI-H727,8.36 nM
same,IC50,NCI-N87,> 512 nM
same,IC50,OE19,36.5 nM
same,IC50,P31-FUJ,72.1 nM
same,IC50,PA-1,0.698 nM
same,IC50,RCM-1,122 nM
same,IC50,RD,7.35 nM
same,IC50,RPMI-7951,3.98 nM
same,IC50,SAS,106 nM
same,IC50,SCC-25,9.71 nM
same,IC50,SIG-M5,< 2 nM
same,IC50,SK-HEP1,7.8 nM
same,IC50,SK-MEL3,6.51 nM
same,IC50,SNU-449,4.18 nM
same,IC50,SNU-C1,> 0.512 µM
same,IC50,SW1417,335 nM
same,IC50,SW1710,< 2 nM
same,IC50,ABC-1,3.19 nM
same,IC50,ARH-77,75.1 nM
same,IC50,BPH-1,0.6 nM
same,IC50,C-33-A,9.77 nM
same,IC50,CA46,2.98 nM
same,IC50,CAL-120,44.1 nM
same,IC50,CAL-39,< 2 nM
same,IC50,CAL-72,2.27 nM
same,IC50,TGW,4.73 nM
same,IC50,THP-1,11.4 nM
same,IC50,U2OS,44.7 nM
same,IC50,U-698-M,77.4 nM
same,IC50,U-251,< 2 nM
same,IC50,UMUC3,1.21 nM
same,IC50,YKG-1,7.72 nM
same,IC50,COLO-678,> 512 nM
